The source of these data is US20030032834A1, “Aminoalcohol derivatives” (priority 2000, published 2003).

Where a name gives a salt, the structure may show the parent alone.

The test system of this assay is increase in intravesical pressure induced by carbachol in anesthetized dog. Briefly: Effect on the increase in intravesical pressure induced by carbachol in anesthetized dog. The note with it: 0.01 mg/kg injected intravenously 5 minutes before carbachol (1.8 μg/kg); anesthetized female Beagle dogs; N = 5; Before 6.2 ± 1.1; *P < 0.01 vs Before (ANOVA). Type of assay: in vivo. The method, then:
Effect on the increase in intravesical pressure induced by carbachol in anesthetized dog
Female Beagle dogs weighing 8.0-15.0 kg were fasted for 24 hours and maintained under halothane anesthesia. A 12F Foley catheter was lubricated with water soluble jelly, inserted into the urethral orifice and advanced approximately 10 cm until the balloon tip was placed well inside the bladder. The balloon was then inflated with 5 ml of room air and catheter slowly withdrawn just part the first resistance that is felt at the bladder neck. Urine was completely drained out through the catheter, and 30 ml of biological saline was infused. The catheter was connected to pressure transducer, and intravesical pressure was continuously recorded. The test compound was injected intravenously at 5 minutes before the administration of carbachol (1.8 μg/kg).

`COC(=O)Nc1ccc(C(CCNC[C@H](O)COc2ccccc2)c2ccc(NC(=O)OC)cc2)cc1` [Test Compound (1), (2S)-1-Phenoxy-3-[3,3-bis[4-(methoxycarbonylamino)-phenyl]propylamino]-2-propanol sulfate (2:1) (crystal Form A)]: the “Increase in intravesical pressure (mmHg)” value is reported as 4.9 ± 0.9* mmHg.
